Values of other authors, collected in US11230553B2, “Nannocystin process and products” (THE RESEARCH FOUNDATION FOR THE STATE UNIVERSITY OF NEW YORK, priority 2016, dated 2022).

What was measured:
HCT116 = HCT116 cancer cell line; read-out: IC50 against HCT116
PC3 = PC3 cancer cell line; read-out: IC50 against PC3
HL60 = HL60 cancer cell line; read-out: IC50 against HL60

CC[C@H](C)[C@H]1C(=O)N[C@H](Cc2cc(Cl)c(O)c(Cl)c2)C(=O)N[C@@H](C(C)(C)O)C(=O)O[C@H](c2ccccc2)[C@H](C)/C=C/C=C(\C)[C@H](OC)C[C@@H]2O[C@@]2(C)C(=O)N1C [nannocystin A, (1), (1R,4S,7R,10S,13S,14R,15E,17E,19R,21S)-4-((S)-sec-butyl)-7-(3,5-dichloro-4-hydroxybenzyl)-10-(2-hydroxypropan-2-yl)-19-methoxy-1,3,14,18-tetramethyl-13-phenyl-12,22-dioxa-3,6,9-triazabicyclo[19.1.0]docosa-15,17-diene-2,5,8,11-tetraone]
IC50 (HCT116): 1.2 nM | IC50 (PC3): 1 nM | IC50 (HL60): 12 nM | anti-proliferative properties against 472 cancer cell lines (472 cancer cell lines): nanomolar concentration range
